# Patent EP1283052A1, “Pharmaceutical composition containing caspase-8 and /or caspase-9 useful for overcoming glucocorticoid- and cancer therapy-induced apoptosis of tumours” (Deutsches Krebsforschungszentrum Stiftung des öffentlichen …, priority 2001, dated 2003)
# System: P5 cells
# Test: Specific apoptosis in P5 cells stably transfected with pcDNA3 or FADD-DN
# Assay type: cell-based, human
# Conditions: 48 h, cisplatin 2 µg/ml; Fig. 2c right
# Method: • (a) Left: P5 an CEM cells were treated with cisplatin (1-5 µg/ml) in the absence or presence of DEX (1 µM) as indicated. Proteins were extracted and expression of CD95-L, TRAIL or TNF-α was detected by Western blot analysis. The size of the proteins in kDa is indicated. Right: HeLa and P5 were treated with CD95 agonistic antibody αAPO-1 (CD95, 1 µg/ml), recombinant TRAIL protein (TRAIL, 100 ng/ml) or recombinant TNF-α protein (TNF-α, 100 ng/ml) in the absence (white bars) or presence (black bars) of DEX (1 µM). 24 h later the percentage of apoptosis was determined by annexin-staining and FACS-analysis in untreated (CO) and stimulated cells at the time points indicated. • (b) P693 and CEM cells were treated with cisplatin (2 µg/ml) in the absence or presence of DEX as indicated. 24 and 48 h following treatment cells were lysed and caspase-8 activity was determined by a fluorescent caspase-8 assay and spectroscopy. • (c) P5 cells were stable transfected with empty vector (pcDNA3), or pcDNA3 vector encoding dominant negative FADD protein (FADD-DN). Proteins were extracted from both cell lines and expression of wildtype (WT) and FADD-DN (DN) was detected by Western blot. Left: Stable transfected P5 cells were treated with αAPO-1 (1 µg/ml) and 24 h later apoptosis was determined by staining with annexin/propidium iodide and flow-cytometry. […]
smiles,measurement,value
N.N.[Cl][Pt][Cl] [cisplatin],cisplatin-induced apoptosis,about 80%
